The results in this text go back to patent US10150760B2, “Compounds for use in preparing heterocyclic triazole agonists of the APJ receptor” (AMGEN INC., priority 2016, dated 2018).

Structures are written as SMILES.

In one experiment the target is human APJ receptor (Homo sapiens (Human), UniProt P35414). Put plainly: [35S]GTPγS binding assay on membranes from CHO cells stably expressing human APJ receptor. To be noted: read-out: Activity hAPJ SPA EC50 IP. It is filed as biochemical. The method in brief:
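Membranes from CHO cells stably expressing human APJ incubated with ligand, 0.2 nM [35S]GTPγS and WGA SPA beads in HEPES pH 7.5 with 5 mM MgCl2, 200 mM NaCl, 3 μM GDP, 90 min at RT. Nonspecific binding defined with 100 μM GTPγS; EC50 by non-linear regression.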

Experiment [1] deals with Male Lewis rats with heart failure induced by permanent ligation of the left descending coronary artery. Nature of the experiment: Cardiac contractility in vivo in heart failure (MI) rat model. As to the method:
Evidence for Improvement in Cardiac Contractility In Vivo in Heart Failure Rat Model
Based on the ex vivo findings in isolated heart assay, APJ agonists were dosed in vivo to investigate the translation of cardiac contractility in in vivo settings. Male Lewis rats (Charles River, USA) at 2-3 months of age were used for the study. Heart failure was induced by permanent ligation of the left descending coronary artery which results in injury to the heart with an ejection fraction of <35%. APJ agonists were administered dose dependently acutely for a period of 30 min.

The subject of experiment [2] is isolated perfused rat hearts. Nature of the experiment: Ex vivo isolated perfused rat heart assay (Langendorff apparatus), load independent inotropic and lusitropic effects. Further details: species or system Sprague Dawley rat. The essentials: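 Hearts from naive Sprague Dawley rats were perfused retrograde via the aorta with oxygenated modified Krebs-Henseleit buffer on a Langendorff apparatus, with agonist infused at several concentrations. An LV balloon recorded dP/dtmax (contractility) and dP/dtmin (relaxation), expressed as percent change over vehicle.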

The test system of a further experiment is heart failure rats. Nature of the experiment: Cardiac function with APJ small molecule agonists in the presence of ACE inhibitor captopril in heart failure rats in vivo. The note with it: captopril alone, acute settings. Also on record: species or system rat. The source says: The interaction between […] (ACE2) and Apelin biology is complicated. To investigate the interaction between the Apelin-APJ and ACE signaling pathways, we examined the improvement in cardiac function with APJ small molecule agonists in the presence of ACE inhibitor captopril in heart failure rats in vivo. […] However, in the presence of an APJ agonist, there was a shift in potency to the left with marked improvement in contractility and ejection fraction without changes in heart rate. These findings provide a new reference for the understanding of the regulation of ACE2 for the renin angiotensin aldosterone system (RAAS), independent of AT1R signaling and offer new potential drug targets for the treatment of diseases such as hypertension and heart failure. This work clearly establishes that combination of an agonist of the APJ receptor with an ARB such as losartan and/or with an ACE inhibitor such as captopril which may play an important role in providing greater efficacy in treating heart failure patients, for example in improving contractility and ejection fraction without changing the heart rate.

Where [3] appears, read: ex vivo naive Sprague Dawley rat hearts, Langendorff apparatus, compared with vehicle.

Sequence of human APJ receptor (P35414 whole entry): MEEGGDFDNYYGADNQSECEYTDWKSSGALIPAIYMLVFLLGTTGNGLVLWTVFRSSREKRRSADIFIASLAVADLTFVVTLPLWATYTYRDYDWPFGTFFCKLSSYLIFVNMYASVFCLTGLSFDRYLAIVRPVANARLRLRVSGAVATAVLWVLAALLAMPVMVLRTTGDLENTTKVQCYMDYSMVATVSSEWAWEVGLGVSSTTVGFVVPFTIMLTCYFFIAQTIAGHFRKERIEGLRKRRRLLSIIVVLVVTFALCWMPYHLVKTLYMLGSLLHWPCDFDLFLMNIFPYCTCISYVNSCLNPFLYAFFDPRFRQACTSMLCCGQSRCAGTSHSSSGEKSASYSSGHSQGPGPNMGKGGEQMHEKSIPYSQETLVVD

Turning to `COc1cccc(OC)c1-n1c(NS(=O)(=O)[C@@H](C)[C@H](C)c2ncc(Cl)cn2)nnc1[C@H]1CCOC1` (single isomer, unassigned) [Example 60.0, (2S,3R)-3-(5-chloropyrimidin-2-yl)-N-(4-(2,6-dimethoxyphenyl)-5-((R)-tetrahydrofuran-3-yl)-4H-1,2,4-triazol-3-yl)butane-2-sulfonamide or (2S,3R)-3-(5-chloropyrimidin-2-yl)-N-(4-(2,6-dimethoxyphenyl)-5-((S)-tetrahydrofuran-3-yl)-4H-1,2,4-triazol-3-yl)butane-2-sulfonamide], at human APJ receptor, the EC50 turned out to be 9.3 nM. Moreover, the “cardiac contractility as measured by dP/dtmax (derivative of left ventricular pressure)” value in experiment [1] (heart failure rats, ejection fraction <35%, administered acutely for 30 min) is “increase in cardiac contractility”. Further, in experiment [1] (in vivo, heart failure (MI) rat, acute administration for 30 min), the “MI Rat Model dP/dtmax (%)” value is given as 20.0%. In experiment [2] (ex vivo isolated perfused rat heart, contractility, percent change over vehicle), the “Isolated Heart Assay dP/dtmax (%)” value came to 19.1%. For the same compound, the “Isolated Heart Assay dP/dtmin (%)” value in experiment [2] (ex vivo isolated perfused rat heart, relaxation, percent change over vehicle) is reported as 18.3%. In experiment [2] (setting [3]), the “left ventricular dP/dtmax (load independent cardiac contractility)” value was “increases load independent cardiac contractility” and the “left ventricular dP/dtmin (load independent cardiac relaxation, lusitropic effect)” value is on record as “increases load independent cardiac relaxation”.
`C[C@H](CS)C(=O)N1CCC[C@H]1C(=O)O` [Captopril, captopril]: in the experiment on heart failure rats, the “improvement in contractility or ejection fraction” value was “does not show a marked improvement in contractility or ejection fraction”.
